Test results published in US20210040089A1, “KRAS MUTANT PROTEIN INHIBITORS” (Jacobio Pharmaceuticals Co., Ltd., priority 2019, published 2021).
pIC50: −log10 of the molar value.

Columns and labels:
[1] = test system: NCI-H358 cells express KRAS G12C; experiment: Cell growth inhibition assay (CCK-8); assay type: cell-based; conditions: Homo sapiens, 144 h; NCI-H358, 6 days incubation
Method: 3. Cell Growth inhibition assay
NCI-H358 cells express KRAS G12C were cultured in RPMI 1640 medium (Gibco) containing 10% fetal bovine serum (Gibco). Cells in culture medium were plated in 96-well plates at a concentration of 3000 cells/well ([…]) and allowed to attach overnight. The next day, compounds were diluted in culture medium and added to the plates. After 6 days incubation in a 37° C./5% CO2 cell incubator, the medium was removed, then 100 μL of 1×CCK-8 (MCE) in culture medium was added in each well. The plates were incubated 1.5-2 hours in a 37° C./5% CO2 cell incubator. OD450 signals were read on Tecan Spark multimode microplate reader and analyzed using a 4-parameter logistic model to calculate IC50 values.

KRAS G12C = biological target: T1, KRAS G12C (Homo sapiens, UniProt P01116, G12C); experiment: SOS1 catalyzed nucleotide exchange assay (TR-FRET); assay type: biochemical; conditions: GDP-loaded HIS-KRAS(G12C), 1 hour pre-incubation with compound
T1 construct: HIS-KRAS (G12C, aa 2-185, Sino biological); purchased Sino biological
T1 sequence (P01116 2-185 isoform P01116-2 G12C): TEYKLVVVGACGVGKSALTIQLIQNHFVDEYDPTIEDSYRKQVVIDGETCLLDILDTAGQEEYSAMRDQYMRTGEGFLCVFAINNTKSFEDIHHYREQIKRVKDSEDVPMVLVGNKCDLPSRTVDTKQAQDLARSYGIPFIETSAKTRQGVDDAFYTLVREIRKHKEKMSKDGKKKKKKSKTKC
Method: 1. SOS1 Catalyzed Nucleotide Exchange Assay
HIS-KRAS (G12C, aa 2-185, Sino biological) was diluted to […] EDTA buffer (20 mM HEPES, pH 7.4, 50 mM NaCl, 10 mM EDA, 0.01% (v/v) Tween-20) and incubated for 30 min at 25° C. The EDTA pretreated HIS-KRAS(G12C) was diluted to 12 nM in assay buffer (25 mM HEPES, pH 7.4, 120 mM NaCl, 5 mM MgCl2, 1 mM DTI, 0.01% (v/v) Tween 20, 0.1% (w/v) BSA) containing 120 nM GDP(Sigma) and Mab Anti 6HIS-Tb cryptate Gold(Cisbio) and incubated for 1 hour at 25° C. to prepare GDP-loaded HIS-KRAS(G12C). The GDP-loaded HIS-KRAS(G12C) was pre-incubation with diluted compounds in a 384-well plate (Greiner) for 1 hour, then purified SOS 1ExD (Flag tag, aa 564-1049) and BODIPY™FL GTP (Invitrogen) were added to the assay wells (Final concentration: 3 nM HIS-KRAS(G12C), 2 μM SOS1 ExD, 80 nM BODIPY™FL GTP, 21 ng/mL MAb Anti 6HS-Tb cryptate Gold) and incubated for 4 hours at 25° C. TR-FRET signals were then read on Tecan Spark multimode microplate reader. The parameters were F486: Excitation 340 (35) nm, Emission 486 (10) nm, Lag time 100 μs, Integration time […]; F515: Excitation 340 (35) nm, Emission 515 (10) nm, Lag time […], Integration time 200 s. TR-FRET ratios for each individual wells were calculated by equation: TR-FRET ratio=(Signal F515/Signal F486)*10000. Then the data were analyzed using a 4-parameter logistic model to calculate IC50 values.

[2] = test system: Phospho-ERK1/2(THR202/TYR204) in NCI-H358 cells express KRAS G12C; experiment: Phospho-ERK1/2(THR202/TYR204) HTRF assay; assay type: cell-based; conditions: Homo sapiens; NCI-H358, 2 hours incubation; read-out: p-ERK inhibition in NCI-H358 IC50
Method: NCI-H358 cells express KRAS G12C were cultured in RPMI 1640 medium (Gibco) containing 10% fetal bovine serum (Gibco). Cells in culture medium were plated in 96-well plates at a concentration of 40,000 cells/well and allowed to attach overnight. The next day, culture medium was removed and added compounds diluted in assay medium (RPMI 1640, 0.1% EFBS). After 2 hours incubation in a 37° C./5% CO2 cell incubator, the assay medium was removed, then 50 μL of 1× supplemented lysis buffer (Cisbio) was added and the plates were incubated at 25° C. for 45 min with shaking. 10 μL of cell lysates from the 96-well plates were transferred to a 384-well plate (Greiner) containing 2.5 µL/well HTRF® pre-mixed antibodies (Cisbio 64AERPEH).
Incubate 4 hours at 25° C. and then read HTRF signals on Tecan Spark multimode microplate reader. The data were analyzed using a 4-parameter logistic model to calculate IC50 values.

Row | Structure (SMILES) | pIC50 [1] | pIC50 (KRAS G12C) | pIC50 [2]
1 | C=CC(=O)N1CCN(c2nc(OCC3(CN4CC(N(C)C)C4)CC3)nc3c2CCN(c2cccc4cccc(C)c24)C3)CC1CC#N (stereo not shown) [Compound 59, 2-(1-acryloyl-4-(2-((1-((3-(dimethylamino)azetidin-1-yl)methyl)cyclopropyl)methoxy)-7-(8-methylnaphthalen-1-yl)-5,6,7,8-tetrahydropyrido[3,4-d]pyrimidin-4-yl)piperazin-2-yl)acetonitrile] | 7.21 | 8.96 | 7.24
2 | C=CC(=O)N1CCN(c2nc(OCC3(CN(C)C)CC3)nc3c2CCN(c2cccc4ncsc24)C3)CC1CC#N (stereo not shown) [Compound 54, 2-(1-acryloyl-4-(7-(benzo[d]thiazol-7-yl)-2-((1-((dimethylamino)methyl)cyclopropyl)methoxy)-5,6,7,8-tetrahydropyrido[3,4-d]pyrimidin-4-yl)piperazin-2-yl)acetonitrile] | < 6.00 | 7.08 | < 6.30
3 | C=CC(=O)N1CCN(c2nc(OCC3(CN4CCOCC4)CC3)nc3c2CCN(c2cccc(Cl)c2C(F)(F)F)C3)CC1CC#N (stereo not shown) [Compound 40, 2-(1-acryloyl-4-(7-(3-chloro-2-(trifluoromethyl)phenyl)-2-((1-(morpholinomethyl)cyclopropyl)methoxy)-5,6,7,8-tetrahydropyrido[3,4-d]pyrimidin-4-yl)piperazin-2-yl)acetonitrile] | 6.44 | 7.62 | 
4 | C=CC(=O)N1CCN(c2nc(OCC3(CN(C)C)CC3)nc3c2CCN(c2cccc4cccc(C)c24)C3)CC1CC#N (stereo not shown) [Compound 47, 2-(1-acryloyl-4-(2-((1-((dimethylamino)methyl)cyclopropyl)methoxy)-7-(8-methylnaphthalen-1-yl)-5,6,7,8-tetrahydropyrido[3,4-d]pyrimidin-4-yl)piperazin-2-yl)acetonitrile] | 7.58 | 8.94 | 7.63
5 | C=CC(=O)N1CCN(c2nc(OCC3(CN(C)C)CC3)nc3c2CCN(c2c(C)ccc4[nH]ncc24)C3)CC1CC#N (stereo not shown) [Compound 3, 2-(1-acryloyl-4-(2-((1-((dimethylamino)methyl)cyclopropyl)methoxy)-7-(5-methyl-1H-indazol-4-yl)-5,6,7,8-tetrahydropyrido[3,4-d]pyrimidin-4-yl)piperazin-2-yl)acetonitrile] | 6.39 | 7.92 | 6.34
6 | C=CC(=O)N1CCN(c2nc(OCC3(CN4CCC4)CC3)nc3c2CCN(c2cccc4cccc(C)c24)C3)CC1CC#N (stereo not shown) [Compound 43, 2-(1-acryloyl-4-(2-((1-(azetidin-1-ylmethyl)cyclopropyl)methoxy)-7-(8-methylnaphthalen-1-yl)-5,6,7,8-tetrahydropyrido[3,4-d]pyrimidin-4-yl)piperazin-2-yl)acetonitrile] | 6.87 | 8.30 | 7.14
7 | C=CC(=O)N1CCN(c2nc(OCC3(CN4CCC4)CC3)nc3c2CCN(c2cccc(Cl)c2C(F)(F)F)C3)CC1CC#N (stereo not shown) [Compound 39, 2-(1-acryloyl-4-(2-((1-(azetidin-1-ylmethyl)cyclopropyl)methoxy)-7-(3-chloro-2-(trifluoromethyl)phenyl)-5,6,7,8-tetrahydropyrido[3,4-d]pyrimidin-4-yl)piperazin-2-yl)acetonitrile] | 6.98 | 8.14 | 7.10
8 | C=CC(=O)N1CCN(c2nc(OCC3(CN(C)C)CC3)nc3c2CCN(c2cccc(C)c2C)C3)CC1CC#N (stereo not shown) [Compound 48, 2-(1-acryloyl-4-(2-((1-((dimethylamino)methyl)cyclopropyl)methoxy)-7-(2,3-dimethylphenyl)-5,6,7,8-tetrahydropyrido[3,4-d]pyrimidin-4-yl)piperazin-2-yl)acetonitrile] | 7.02 | 8.48 | 7.18
9 | C=CC(=O)N1CCN(c2nc(OCC3CCC(N(C)C)C3)nc3c2CCN(c2cccc4ccccc24)C3)CC1CC#N (stereo not shown) [Compound 17, 2-(1-acryloyl-4-(2-((3-(dimethylamino)cyclopentyl)methoxy)-7-(naphthalen-1-yl)-5,6,7,8-tetrahydropyrido[3,4-d]pyrimidin-4-yl)piperazin-2-yl)acetonitrile] | 6.52 | 7.08 | 6.51
10 | C=C(F)C(=O)N1CCN(c2nc(OCC3(CN4CCC4)CC3)nc3c2CCN(c2cccc4cccc(C)c24)C3)CC1CC#N (stereo not shown) [Compound 73, 2-(4-(2-((1-(azetidin-1-ylmethyl)cyclopropyl)methoxy)-7-(8-methylnaphthalen-1-yl)-5,6,7,8-tetrahydropyrido[3,4-d]pyrimidin-4-yl)-1-(2-fluoroacryloyl)piperazin-2-yl)acetonitrile] | 6.05 | 7.77 | 6.02
11 | C=CC(=O)N1CCN(c2nc(OC3CCCC(N(C)C)C3)nc3c2CCN(c2cccc4ccccc24)C3)CC1CC#N (stereo not shown) [Compound 10, 2-(1-acryloyl-4-(2-((3-(dimethylamino)cyclohexyl)oxy)-7-(naphthalen-1-yl)-5,6,7,8-tetrahydropyrido[3,4-d]pyrimidin-4-yl)piperazin-2-yl)acetonitrile] | 6.03 | 5.76 | 6.14
12 | C=CC(=O)N1CCN(c2nc(OCC3(CN4CC(F)C4)CC3)nc3c2CCN(c2cccc4cccc(C)c24)C3)CC1CC#N (stereo not shown) [Compound 62, 2-(1-acryloyl-4-(2-((1-((3-fluoroazetidin-1-yl)methyl)cyclopropyl)methoxy)-7-(8-methylnaphthalen-1-yl)-5,6,7,8-tetrahydropyrido[3,4-d]pyrimidin-4-yl)piperazin-2-yl)acetonitrile] | 7.17 | 8.63 | 7.37
13 | C=CC(=O)N1CCN(c2nc(OCC3(CN(C)C)CC3)nc3c2CCN(c2cccc4ccccc24)C3)CC1CC#N (stereo not shown) [Compound 37, 2-(1-acryloyl-4-(2-((1-((dimethylamino)methyl)cyclopropyl)methoxy)-7-(naphthalen-1-yl)-5,6,7,8-tetrahydropyrido[3,4-d]pyrimidin-4-yl)piperazin-2-yl)acetonitrile] | 7.07 | 8.17 | 7.09
14 | C=CC(=O)N1CCN(c2nc(OCC3CCCC3N(C)C)nc3c2CCN(c2ccccc2C(F)(F)F)C3)CC1CC#N (stereo not shown) [Compound 27, 2-(1-acryloyl-4-(2-((2-(dimethylamino)cyclopentyl)methoxy)-7-(2-(trifluoromethyl)phenyl)-5,6,7,8-tetrahydropyrido[3,4-d]pyrimidin-4-yl)piperazin-2-yl)acetonitrile] | 6.51 | 7.07 | 6.25
15 | C=CC(=O)N1CCN(c2nc(OCC3(CN(C)CCN(C)C)CC3)nc3c2CCN(c2cccc4cccc(C)c24)C3)CC1CC#N (stereo not shown) [Compound 64, 2-(1-acryloyl-4-(2-((1-(((2-(dimethylamino)ethyl)(methyl)amino)methyl)cyclopropyl)methoxy)-7-(8-methylnaphthalen-1-yl)-5,6,7,8-tetrahydropyrido[3,4-d]pyrimidin-4-yl)piperazin-2-yl)acetonitrile] | 7.13 | 8.77 | 6.91
16 | C=CC(=O)N1CCN(c2nc(OCC3CCCC3N(C)C)nc3c2CCN(c2cccc(C)c2C)C3)CC1CC#N (stereo not shown) [Compound 28, 2-(1-acryloyl-4-(2-((2-(dimethylamino)cyclopentyl)methoxy)-7-(2,3-dimethylphenyl)-5,6,7,8-tetrahydropyrido[3,4-d]pyrimidin-4-yl)piperazin-2-yl)acetonitrile] | 6.86 | 7.62 | 
